Key:
[1] = test system: rabbit serum obtained by immunizing a rabbit with the SARS-CoV strain Frankfurt 1; format: binding; set-up: Binding of a rabbit serum to linear peptides / Binding of a rabbit serum to looped peptides / Rabbit serum linear peptides / Rabbit serum looped peptides / Binding of a rabbit serum to linear peptides of protein N of SARS-CoV Urbani (Rabbit serum linear peptides) / Binding of a rabbit serum to looped/cyclic peptides of protein N of SARS-CoV Urbani (Rabbit serum looped peptides): unit not given here
[2] = test system: recombinant human anti-SARS-CoV antibody 03-018; format: binding; set-up: Binding of antibody 03-018 to linear peptides of the N protein of SARS-CoV Urbani / Binding of antibody 03-018 to looped/cyclic peptides of the N protein of SARS-CoV Urbani: unit not given here
[3] = test system: control sera (pooled serum of ten healthy LUMC hospital workers; commercial negative donor pooled serum from the Dutch bloodbank); format: binding, human; set-up: Binding of Control serum LUMC to linear peptides / Binding of Control serum Blood-bank to linear peptides / Binding of Control serum LUMC to looped peptides / Binding of Control Serum Blood-Bank to Looped peptides / Binding of Control serum LUMC to linear peptides of the protein M of SARS-CoV Urbani / Binding of Control serum Blood-bank to linear peptides of the protein M of SARS-CoV Urbani / Binding of Control serum LUMC to looped peptides of the protein M of SARS-CoV Urbani / Binding of Control Serum Blood-Bank to Looped peptides of the protein M of SARS-CoV Urbani: unit not given here
[4] = test system: antibodies in sera from SARS patients (sera 1a, 1b, 2, 6, 37, 62, London, SARS-yellow, SARS-green); format: binding, human; set-up: Binding of serum 6 to linear peptides of protein X1 of SARS-CoV Urbani / Binding of serum 37 to linear peptides of protein X1 of SARS-CoV Urbani / Binding of serum 6 to looped/cyclic peptide (PEPSCAN-ELISA) / Binding of serum 37 to looped/cyclic peptide (PEPSCAN-ELISA) / Binding of serum 37 to looped/cyclic peptides of protein X1 of SARS-CoV Urbani / Binding of serum 6 to linear peptides of protein X2 / Binding of serum 37 to linear peptides of protein X2 / Binding of serum 37 to looped/cyclic peptides of protein X2 of SARS-CoV Urbani / Binding of serum 6 to linear peptides of protein M of SARS-CoV Urbani / Binding of serum 37 to linear peptides of protein M of SARS-CoV Urbani / Binding of serum 6 to looped/cyclic peptides of protein M of SARS-CoV Urbani / Binding of serum 37 to looped/cyclic peptides of protein M of SARS-CoV Urbani / Binding of serum 6 to linear peptides of protein X3 of SARS-CoV Urbani / Binding of serum 37 to linear peptides of protein X3 of SARS-CoV Urbani / Binding of serum 37 to looped/cyclic peptides of protein X3 of SARS-CoV Urbani / Binding of serum 6 to linear peptides of protein X4 of SARS-CoV Urbani / Binding of serum 37 to linear peptides of protein X4 of SARS-CoV Urbani / Binding of serum 37 to looped/cyclic peptides of protein X4 of SARS-CoV Urbani / Binding of serum 6 to linear peptides of protein X5 of SARS-CoV Urbani / Binding of serum 37 to linear peptides of protein X5 of SARS-CoV Urbani / Binding of serum 37 to looped/cyclic peptides of protein X5 of SARS-CoV Urbani / Binding of serum 6 to linear peptides of protein N of SARS-CoV Urbani / Binding of serum 37 to linear peptides of protein N of SARS-CoV Urbani / Binding of serum 6 to linear peptide (PEPSCAN-ELISA) / Binding of serum 1a to looped/cyclic peptides of protein N of SARS-CoV Urbani / Binding of serum 1b to looped/cyclic peptides of protein N of SARS-CoV Urbani / Binding of serum 2 to looped/cyclic peptides of protein N of SARS-CoV Urbani / Binding of serum 6 to looped/cyclic peptides of protein N of SARS-CoV Urbani / Binding of serum 37 to looped/cyclic peptides of protein N of SARS-CoV Urbani / Binding of serum 62 to looped/cyclic peptides of protein N of SARS-CoV Urbani / Binding of serum London to looped/cyclic peptides of protein N of SARS-CoV Urbani / Binding of serum SARS-green to looped/cyclic peptides of protein N of SARS-CoV Urbani: unit not given here

| Sequence | Binding of a rabbit serum to linear peptides of protein N of SARS-CoV Urbani (Rabbit serum linear peptides) [1] | Binding of a rabbit serum to looped/cyclic peptides of protein N of SARS-CoV Urbani (Rabbit serum looped peptides) [1] | Binding of antibody 03-018 to linear peptides of the N protein of SARS-CoV Urbani [2] | Binding of antibody 03-018 to looped/cyclic peptides of the N protein of SARS-CoV Urbani [2] | Binding of Control Serum Blood-Bank to Looped peptides [3] | Binding of Control serum Blood-bank to linear peptides [3] | Binding of Control serum LUMC to linear peptides [3] | Binding of Control serum LUMC to looped peptides [3] | Binding of serum 1a to looped/cyclic peptides of protein N of SARS-CoV Urbani [4] | Binding of serum 1b to looped/cyclic peptides of protein N of SARS-CoV Urbani [4] | Binding of serum 2 to looped/cyclic peptides of protein N of SARS-CoV Urbani [4] | Binding of serum 6 to looped/cyclic peptides of protein N of SARS-CoV Urbani [4] | Binding of serum 37 to looped/cyclic peptides of protein N of SARS-CoV Urbani [4] | Binding of serum 62 to looped/cyclic peptides of protein N of SARS-CoV Urbani [4] | Binding of serum London to looped/cyclic peptides of protein N of SARS-CoV Urbani [4] | Binding of serum SARS-green to looped/cyclic peptides of protein N of SARS-CoV Urbani [4] | Binding of serum SARS-yellow to looped/cyclic peptides of protein N of SARS-CoV Urbani [4] | Binding of serum 1a to linear peptides of protein N of SARS-CoV Urbani [4] | Binding of serum 1b to linear peptides of protein N of SARS-CoV Urbani [4] | Binding of serum 2 to linear peptides of protein N of SARS-CoV Urbani [4] | further results |
| --- | --- | --- | --- | --- | --- | --- | --- | --- | --- | --- | --- | --- | --- | --- | --- | --- | --- | --- | --- | --- | --- |
| RSRGNSRNSTPGSSR | 0.4 | 1.1 | 0.1 | 0.2 | 0.3 | 0.8 | 0.6 | 0.3 | 0.3 | 0.1 | 0.2 | 0.2 | 0.2 | 0.1 | 0.2 | 0.1 | 0.1 |  |  |  | Binding of serum 1a to linear peptide (PEPSCAN-ELISA) [4]: 0.7; Binding of serum 1b to linear peptide (PEPSCAN-ELISA) [4]: 0.4; Binding of serum 2 to linear peptide (PEPSCAN-ELISA) [4]: 0.2; Binding of serum 6 to linear peptide (PEPSCAN-ELISA) [4]: 0.2; Binding of serum 37 to linear peptide (PEPSCAN-ELISA) [4]: 0.7; Binding of serum 62 to linear peptide (PEPSCAN-ELISA) [4]: 0.6; Binding of serum London to linear peptide (PEPSCAN-ELISA) [4]: 0.5; Binding of serum SARS-green to linear peptide (PEPSCAN-ELISA) [4]: 0.2; Binding of serum SARS-yellow to linear peptide (PEPSCAN-ELISA) [4]: 0.6 |
| SAAEASKKPRQKRTA | 0.2 | 0.3 | 0.1 | 0.2 | 0.4 | 0.8 | 0.8 | 0.4 | 0.2 | 0.1 | 0.2 | 0.1 | 0.4 | 0.3 | 0.3 | 0.1 | 0.2 |  |  |  | Recognition of the peptide by sera of SARS-CoV infected individuals, and form (linear, looped/cyclic) in which it is recognized [4]: recognized in linear form |
| SAFFGMSRIGMEVTP | 0.2 | 0.5 | 0.1 | 0.2 |  |  |  |  | 0.4 | 0.3 | 0.4 | 0.2 | 0.5 | 0.4 | 0.4 | 0.4 | 0.5 | 0.3 | 0.2 | 0.2 | Control Serum Blood-Bank Looped peptides [3]: 0.6; Control serum Blood-bank linear peptides [3]: 0.8; Control serum LUMC linear peptides [3]: 0.7; Control serum LUMC looped peptides [3]: 0.5; Binding of serum 6 to linear peptides of protein N of SARS-CoV Urbani [4]: 0.2; Binding of serum 37 to linear peptides of protein N of SARS-CoV Urbani [4]: 0.7; Binding of serum 62 to linear peptides of protein N of SARS-CoV Urbani [4]: 0.8; Binding of serum London to linear peptides of protein N of SARS-CoV Urbani [4]: 0.6; Binding of serum SARS-green to linear peptides of protein N of SARS-CoV Urbani [4]: 0.3; Binding of serum SARS-yellow to linear peptides of protein N of SARS-CoV Urbani [4]: 0.7 |
| SAPRITFGGPTDSTD | 0.2 | 0.5 |  |  | 0.5 | 0.4 | 0.5 | 0.4 | 0.3 | 0.2 | 0.2 | 0.1 | 0.5 | 0.3 | 0.3 | 0.9 | 0.4 | 0.2 | 0.2 | 0.1 | Recognition of the peptide by antibody 03-018 [2]: recognized; Binding of serum 6 to linear peptides of protein N of SARS-CoV Urbani [4]: 0.1; Binding of serum 37 to linear peptides of protein N of SARS-CoV Urbani [4]: 0.7; Binding of serum 62 to linear peptides of protein N of SARS-CoV Urbani [4]: 0.6; Binding of serum London to linear peptides of protein N of SARS-CoV Urbani [4]: 0.5; Binding of serum SARS-green to linear peptides of protein N of SARS-CoV Urbani [4]: 0.6; Binding of serum SARS-yellow to linear peptides of protein N of SARS-CoV Urbani [4]: 0.4 |

— patent publication US20070128217A1 (priority 2003, published 2007)
